Like-named read-outs stand apart in the source and are kept apart here. Marks after values point to notes of the source that are not given here.

Experiment [1] has as its target T1, alpha-glucosidase (Saccharomyces cerevisiae, UniProt P53341). The note with it: cited from earlier work; for IC50: ref 13.
Experiment [2] deals with T1, alpha-glucosidase. In words: enzyme kinetic study (Lineweaver-Burk and secondary plots). The experiment is classed as biochemical. The note with it: for inhibition type: Lineweaver-Burk plot; for Ki′: inhibition constant when inhibitor bound with enzyme-substrate complex, secondary plot. As for the experimental part: The double reciprocal Lineweaver–Burk plot was used to determine the mode of inhibition, while the secondary plots conducted the inhibition constants. […] Briefly, the enzyme inhibition procedure was performed as mention above. The 6 concentrations of pNPG (5–0.1 mM), the fixed enzyme concentration (1 unit/mL), and the 3 concentrations of each effective sample were evaluated for the manner of inhibition.

Another experiment concerns alpha-amylase. Also on record: method as in PMID 31185767. The note with it: ref 15; cited from earlier work.

T1 sequence (P53341 whole entry): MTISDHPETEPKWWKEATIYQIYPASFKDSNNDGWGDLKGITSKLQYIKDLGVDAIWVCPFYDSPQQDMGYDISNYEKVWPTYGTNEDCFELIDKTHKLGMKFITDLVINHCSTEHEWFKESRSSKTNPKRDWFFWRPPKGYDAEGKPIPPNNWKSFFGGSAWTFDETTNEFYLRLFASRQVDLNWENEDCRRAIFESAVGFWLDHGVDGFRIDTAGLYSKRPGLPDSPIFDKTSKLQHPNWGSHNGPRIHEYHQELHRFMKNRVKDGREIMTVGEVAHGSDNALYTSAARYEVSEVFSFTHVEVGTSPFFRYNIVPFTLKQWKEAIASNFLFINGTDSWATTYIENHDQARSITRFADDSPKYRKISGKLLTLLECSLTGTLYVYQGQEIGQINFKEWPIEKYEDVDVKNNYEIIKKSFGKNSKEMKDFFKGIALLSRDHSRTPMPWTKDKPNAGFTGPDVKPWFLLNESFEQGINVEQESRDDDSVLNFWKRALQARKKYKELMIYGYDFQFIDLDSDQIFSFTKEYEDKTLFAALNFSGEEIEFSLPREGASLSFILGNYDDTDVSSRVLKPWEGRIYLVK

As for `O=C(/C=C/c1ccc(O)cc1)NCCc1ccc(O)cc1` [Compound 5, N-trans-coumaroyltyramine], the inhibition type entry on alpha-glucosidase [1] (ref 11, 13) is recorded as “uncompetitive”; on alpha-glucosidase [1] (ref 12), “non-competitive”; on alpha-glucosidase [2] it was “Uncompetitive”. Moreover, on alpha-glucosidase [1], the IC50 is 0.58 µM. For the same compound, the “Ki′” value on alpha-glucosidase [2] is 1.99 µM; at alpha-glucosidase [2] (listed as N-trans-coumaroyltyramine (5)), 1.99 ^c µM.

As for `COc1cc2ccc(=O)oc2cc1O` [Compound 1, scopoletin], the alpha-amylase inhibitory activity result with alpha-amylase is “potent inhibitory activity”. For the same compound, the inhibition type entry at alpha-glucosidase [1] (ref 20) was “competitive”; on alpha-glucosidase [2], “mixed-type”; on alpha-glucosidase [2] (listed as Scopoletin (1)), “Mixed”.

On to `COc1cc(/C=C/C(=O)NCCc2ccc(O)cc2)ccc1O` [Compound 4, N-trans-feruloyltyramine], for which the inhibition type entry is recorded as “uncompetitive” at alpha-glucosidase [1] (ref 11, 13); “non-competitive” on alpha-glucosidase [1] (ref 12); “Uncompetitive” against alpha-glucosidase [2]. Besides, at alpha-glucosidase [1], the IC50 was 3.58 µM. In addition, the “Ki′” value on alpha-glucosidase [2] was 51.81 µM; on alpha-glucosidase [2] (listed as N-trans-feruloyltyramine (4)), 51.81 ^c µM.

As for `C[C@H]1O[C@H](O[C@H]2[C@H](O)[C@@H](O)[C@@H](O[C@H]3[C@H](O)[C@@H](O)C(O)O[C@@H]3CO)O[C@@H]2CO)[C@H](O)[C@@H](O)[C@@H]1N[C@H]1C=C(CO)[C@@H](O)[C@H](O)[C@H]1O` (stereo partly drawn) [Acarbose, acarbose, reference compound], the “inhibition type” value against alpha-glucosidase [2] is listed as “Competitive”.

Regarding `COc1cc(C(=O)O)cc(OC)c1O` [Compound 2, syringic acid], the inhibition type entry on alpha-glucosidase [1] (ref 9) is “either in a competitive or an uncompetitive manner”.

These data come from publication PMC8839375, “Alpha-Glucosidase Inhibition and Molecular Docking of Isolated Compounds from Traditional Thai Medicinal Plant, Neuropeltis racemosa Wall” (Molecules, 2022).
